Where a name gives a salt, the structure may show the parent alone. Each block holds one compound with its values, some of them ahead of it.
Experiments:
[1] = High-temperature (60° C.) stability testing; format: physicochemical
Experimental: 2) Testing for the Effect of Temperature
Each sample was placed on an open watch glass and tested under high-temperature conditions (60° C.).

[2] = High-humidity (25° C./92.5 RH) stability testing; format: physicochemical; details: for Appearance / Content / Enantiomer / Total impurity content / Water: 25° C./92.5RH
Experimental: 3) Testing for the Effect of Humidity
Each sample was placed in an open low-form weighing bottle and tested under high-humidity conditions (25° C./92.5 RH).

[3] = Accelerated stability testing (40±2° C./75±5% RH); format: physicochemical
Experimental: Inner packaging: a double-layer medical low-density polyethylene bag; outer packaging: an aluminum foil bag.
Test conditions: 40±2° C./75±5% RH.

[4] = Photostability testing; format: physicochemical; details: for Appearance / Content / Enantiomer / Total impurity content / Water: photostability
Description: 1) Photostability Testing
Two test samples (one as a 5-day test sample, the other as a 10-day test sample) and two controls (one as a 5-day control, the other as a 10-day control) were used. The test samples were spread as thin layers on clean watch glasses and covered with quartz glass covers. The controls were packaged in the same manner as the test samples except that the watch glasses were covered with aluminum film.
Test conditions: a photostability tester.

[5] = target: human TLR8 (Homo sapiens (Human), UniProt Q9NR97); assay: HEK-Blue hTLR8 SEAP reporter agonist assay; format: cell-based; details: HEK-Blue hTLR8 cells, 24 hours, SEAP OD650
Description: (§1) Experimental Example 1: Screening for In Vitro Receptor Binding Activity of Human Toll-Like Receptor 7 (TLR7) and Human Toll-Like Receptor 8 (TLR8)
(§2) The HEK-Blue™ hTLR7 (catalog No.: hkb-htlr7) and HEK-Blue™ hTLR8 (catalog No.: hkb-htlr8) cell lines used in this experiment were purchased from InvivoGen. The two cell lines were constructed by a human embryonic kidney 293 cell line stably co-transfecting hTLR7 or hTLR8 and inducing expression of Secreted Alkaline Phosphatase (SEAP) reporter gene, wherein SEAP reporter gene was regulated by an IFN-β promoter. […]
(§3) 2. […] The cells were counted and the cell suspension was adjusted to 500,000 cells/mL with the culture medium. […]
(§4) 4. Activity assay on the compound: 20 µL of the induced cell supernatant from each well was added to a cell culture plate containing 180 µL of QUANTI-Blue™ reagent, and after incubation at 37° C. for 1 hour, the optical density absorbance at 650 nm (OD650) was assayed for each well using a multi-functional microplate reader.
(§5) 5. Activity assay on the cells: luciferase signal (RLU) was detected using a multi-functional microplate reader as per the process described in the instructions of ATPlite 1 Step.
(§6) 6. Data analysis: compound activity: OD650 values were analyzed using a GraphPad Prism software and the dose-response curves of the compound were fitted to calculate EC50 values (half maximal effect concentration) for the compound.

[6] = Pharmacokinetic study in mice; format: in vivo; details: mouse, plasma
Experimental: Experimental Example 3: Pharmacokinetic Study in Mice
This experiment was intended to evaluate the pharmacokinetic behavior of the compound after a single intravenous injection or intragastric administration in mice.
The concentration of the test compound in plasma was determined by high performance liquid chromatography-tandem mass spectrometry (LC-MS/MS). The retention times of the compound and internal standard, chromatogram acquisitions and integrals of chromatograms were processed using the software Analyst (Applied Biosystems), and the data statistics were processed using the software Watson LIMS (Thermo Fisher Scientific) or Analyst (Applied Biosystems).
The plasma concentrations were processed using a non-compartmental model of WinNonlin™ Version 6.3 (Pharsight, Mountain View, CA), a pharmacokinetic software, and the pharmacokinetic parameters were calculated using a linear-log trapezoidal method.
The related pharmacokinetic parameters in the mice at 1 mg/Kg intravenous injection and 5 mg/Kg oral intragastric administration of the hydrochloride of the compound of formula (I) are shown in Table 4 below.

[7] = target: human TLR7 (Homo sapiens (Human), UniProt Q9NYK1); assay: HEK-Blue hTLR7 SEAP reporter agonist assay; format: cell-based; details: HEK-Blue hTLR7 cells, 24 hours, SEAP OD650
Description: as §1, §2, §3, §4, §5, §6

[8] = Day 5, control group (aluminum film)
[9] = Day 10, control group (aluminum film)
[10] = oral intragastric administration 5 mg/Kg

human TLR7, sequence (Q9NYK1 27-1049): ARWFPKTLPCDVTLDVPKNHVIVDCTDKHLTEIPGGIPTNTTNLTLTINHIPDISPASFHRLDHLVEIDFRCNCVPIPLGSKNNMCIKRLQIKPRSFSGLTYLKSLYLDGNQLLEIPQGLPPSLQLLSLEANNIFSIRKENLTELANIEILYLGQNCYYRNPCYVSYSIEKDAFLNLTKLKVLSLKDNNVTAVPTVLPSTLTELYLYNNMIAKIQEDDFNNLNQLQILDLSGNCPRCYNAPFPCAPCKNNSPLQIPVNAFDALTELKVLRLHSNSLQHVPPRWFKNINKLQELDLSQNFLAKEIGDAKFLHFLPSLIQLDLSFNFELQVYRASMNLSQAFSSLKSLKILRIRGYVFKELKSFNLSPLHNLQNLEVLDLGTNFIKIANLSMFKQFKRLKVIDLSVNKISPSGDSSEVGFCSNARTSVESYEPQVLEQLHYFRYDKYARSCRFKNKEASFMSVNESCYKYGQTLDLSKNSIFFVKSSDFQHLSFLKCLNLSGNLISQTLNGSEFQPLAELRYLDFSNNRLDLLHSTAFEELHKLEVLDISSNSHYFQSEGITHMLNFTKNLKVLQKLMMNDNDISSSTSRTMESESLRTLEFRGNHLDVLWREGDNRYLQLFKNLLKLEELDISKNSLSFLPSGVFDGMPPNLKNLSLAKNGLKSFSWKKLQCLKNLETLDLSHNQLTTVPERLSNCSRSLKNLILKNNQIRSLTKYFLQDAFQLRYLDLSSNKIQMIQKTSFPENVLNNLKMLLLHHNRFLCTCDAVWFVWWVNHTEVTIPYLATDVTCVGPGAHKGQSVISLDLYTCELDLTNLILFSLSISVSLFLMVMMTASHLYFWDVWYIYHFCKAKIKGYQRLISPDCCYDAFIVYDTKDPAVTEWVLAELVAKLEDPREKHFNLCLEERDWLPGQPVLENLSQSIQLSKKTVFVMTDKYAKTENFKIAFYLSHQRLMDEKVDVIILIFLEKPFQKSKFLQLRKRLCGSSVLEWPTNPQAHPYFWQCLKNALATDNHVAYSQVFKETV
human TLR8, sequence (Q9NR97 27-1041): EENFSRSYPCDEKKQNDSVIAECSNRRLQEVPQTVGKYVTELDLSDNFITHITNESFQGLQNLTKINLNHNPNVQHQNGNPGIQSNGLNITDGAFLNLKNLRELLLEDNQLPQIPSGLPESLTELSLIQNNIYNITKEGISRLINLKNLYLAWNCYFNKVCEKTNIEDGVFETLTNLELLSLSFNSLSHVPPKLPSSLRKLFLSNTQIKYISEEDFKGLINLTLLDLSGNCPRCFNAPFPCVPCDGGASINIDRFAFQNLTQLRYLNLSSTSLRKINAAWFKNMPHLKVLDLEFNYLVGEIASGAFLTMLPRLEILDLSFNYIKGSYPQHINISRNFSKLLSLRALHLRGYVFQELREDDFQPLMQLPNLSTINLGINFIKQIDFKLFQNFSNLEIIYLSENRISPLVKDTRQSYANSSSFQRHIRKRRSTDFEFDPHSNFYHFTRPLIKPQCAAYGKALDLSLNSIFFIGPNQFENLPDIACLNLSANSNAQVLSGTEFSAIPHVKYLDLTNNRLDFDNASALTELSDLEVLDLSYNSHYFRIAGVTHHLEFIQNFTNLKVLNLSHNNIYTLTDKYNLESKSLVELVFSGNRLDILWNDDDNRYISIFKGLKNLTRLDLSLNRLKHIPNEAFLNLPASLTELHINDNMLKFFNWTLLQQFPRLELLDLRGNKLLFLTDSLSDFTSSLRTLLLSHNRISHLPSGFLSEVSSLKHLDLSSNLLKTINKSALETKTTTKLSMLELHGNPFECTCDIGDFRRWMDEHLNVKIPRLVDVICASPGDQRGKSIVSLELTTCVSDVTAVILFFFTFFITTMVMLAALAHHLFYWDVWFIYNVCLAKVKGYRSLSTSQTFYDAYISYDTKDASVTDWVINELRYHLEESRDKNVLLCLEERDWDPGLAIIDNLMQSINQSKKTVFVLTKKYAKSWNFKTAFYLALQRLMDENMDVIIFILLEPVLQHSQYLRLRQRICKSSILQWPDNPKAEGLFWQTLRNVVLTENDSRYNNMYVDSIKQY

- High-temperature stability (conclusion) ([1]; 5-day, 10-day and 30-day): good high-temperature stability
- Appearance ([1]; Day 5): Off-white powder
- Content ([1]; Day 5): 99.1%
- Enantiomer ([1]; Day 5): 0.35%
- Total impurity content ([1]; Day 5): <0.05%
- Water ([1]; Day 5): 0.25%
- Appearance ([1]; Day 10): Off-white powder
- Content ([1]; Day 10): 99.0%
- Enantiomer ([1]; Day 10): 0.37%
- Total impurity content ([1]; Day 10): <0.05%
- Water ([1]; Day 10): 0.24%
- Appearance ([1]; Day 30): Off-white powder
- Content ([1]; Day 30): 98.2%
- Enantiomer ([1]; Day 30): 0.34%
- Total impurity content ([1]; Day 30): <0.05%
- Water ([1]; Day 30): 0.26%
- Appearance ([1]; initial value): Off-white powder
- Content ([1]; initial value): 98.3%
- Enantiomer ([1]; initial value): 0.34%
- Total impurity content ([1]; initial value): <0.05%
- Water ([1]; initial value): 0.19%
- High-humidity stability (conclusion) ([2]; 25° C./92.5 RH, 5-day, 10-day and 30-day): good high-humidity stability
- Appearance ([2]; Day 5): Off-white powder
- Content ([2]; Day 5): 98.8%
- Enantiomer ([2]; Day 5): 0.35%
- Total impurity content ([2]; Day 5): <0.05%
- Water ([2]; Day 5): 0.29%
- Appearance ([2]; Day 10): Off-white powder
- Content ([2]; Day 10): 99.4%
- Enantiomer ([2]; Day 10): 0.35%
- Total impurity content ([2]; Day 10): <0.05%
- Water ([2]; Day 10): 0.29%
- Appearance ([2]; Day 30): Off-white powder
- Content ([2]; Day 30): 98.7%
- Enantiomer ([2]; Day 30): 0.35%
- Total impurity content ([2]; Day 30): <0.05%
- Water ([2]; Day 30): 0.30%
- Appearance ([2]; initial value): Off-white powder
- Content ([2]; initial value): 98.3%
- Enantiomer ([2]; initial value): 0.34%
- Total impurity content ([2]; initial value): <0.05%
- Water ([2]; initial value): 0.19%
- Appearance ([3]; Month 1): Off-white powder
- Content ([3]; Month 1): 98.9%
- Total impurity content ([3]; Month 1): <0.05%
- Water ([3]; Month 1): 0.30%
- Appearance ([3]; Month 2): Off-white powder
- Content ([3]; Month 2): 99.5%
- Total impurity content ([3]; Month 2): <0.05%
- Water ([3]; Month 2): 0.31%
- Appearance ([3]; Month 3): Off-white powder
- Content ([3]; Month 3): 98.8%
- Enantiomer ([3]; Month 3): 0.32%
- Total impurity content ([3]; Month 3): <0.05%
- Water ([3]; Month 3): 0.28%
- XRPD ([3]; Month 3): Crystal form A
- Appearance ([3]; Month 6): Off-white powder
- Content ([3]; Month 6): 99.3%
- Enantiomer ([3]; Month 6): 0.34%
- Total impurity content ([3]; Month 6): <0.05%
- Water ([3]; Month 6): 0.34%
- Appearance ([3]; initial value): Off-white powder
- Content ([3]; initial value): 98.3%
- Enantiomer ([3]; initial value): 0.34%
- Total impurity content ([3]; initial value): <0.05%
- Water ([3]; initial value): 0.19%
- XRPD ([3]; initial value): Crystal form A
- Photostability (conclusion) ([4]; lighting conditions, 5-day and 10-day): good photostability
- Appearance [4, 8]: Off-white powder
- Content [4, 8]: 98.7%
- Enantiomer [4, 8]: 0.35%
- Total impurity content [4, 8]: <0.05%
- Water [4, 8]: 0.25%
- Appearance ([4]; Day 5, test group): Off-white powder
- Content ([4]; Day 5, test group): 98.8%
- Enantiomer ([4]; Day 5, test group): 0.34%
- Total impurity content ([4]; Day 5, test group): <0.05%
- Water ([4]; Day 5, test group): 0.24%
- Appearance [4, 9]: Off-white powder
- Content [4, 9]: 99.1%
- Enantiomer [4, 9]: 0.36%
- Total impurity content [4, 9]: <0.05%
- Water [4, 9]: 0.25%
- Appearance ([4]; Day 10, test group): Off-white powder
- Content ([4]; Day 10, test group): 98.6%
- Enantiomer ([4]; Day 10, test group): 0.34%
- Total impurity content ([4]; Day 10, test group): <0.05%
- Water ([4]; Day 10, test group): 0.25%
- Appearance ([4]; initial value): Off-white powder
- Content ([4]; initial value): 98.3%
- Enantiomer ([4]; initial value): 0.34%
- Total impurity content ([4]; initial value): <0.05%
- Water ([4]; initial value): 0.19%
Structure (SMILES): CCCC[C@](C)(Cc1ncn[nH]1)Nc1nc(N)nc2cnccc12
- Stability under accelerated conditions (conclusion, XRPD) ([3]; Month 3): stays stable under accelerated conditions

- EC50 [5]: 0.003 µM
- bioavailability ([6]; 5 mg/Kg oral vs 1 mg/Kg intravenous, read-out: Bioavailability (F%)): 27.7%
- AUC(0-t) ([6]; intravenous injection 1 mg/Kg): 0.45 µM·h
- clearance ([6]; intravenous injection 1 mg/Kg): 90.2 mL/min/kg
- Vd ([6]; intravenous injection 1 mg/Kg, read-out: Vdss): 1.75 L/kg
- half-life ([6]; intravenous injection 1 mg/Kg, read-out: t½ (converted)): 15 min
- AUC(0-t) [6, 10]: 0.624 µM·h
- Cmax [6, 10]: 421 nM
- Tmax [6, 10]: 30 min
- EC50 [7]: 33.3 µM
Structure (SMILES): CCCC[C@](C)(Cc1ncn[nH]1)Nc1nc(N)nc2cnccc12 [Hydrochloride of compound of formula (I)]

From US20230303557A1, “CRYSTALLINE FORM OF TLR8 AGONIST” (CHIA TAI TIANQING PHARMACEUTICAL GROUP CO., LTD., priority 2020, published 2023)
